pIC50: −log10 of the molar value.
Assays:
[1] = biological target: PDE1C (Homo sapiens (Human), UniProt Q14123); assay: PDE inhibition, recombinant PDE1C; type: biochemical
[2] = biological target: PDE8A (Homo sapiens (Human), UniProt O60658); assay: PDE inhibition, recombinant PDE8A; type: biochemical
Source text: (§1) Recombinant PDE1C (GenBank/EMBL Accession Number: NM_005020, Loughney et al. J. Biol. Chem. 1996 271, 796-806), PDE2A (GenBank/EMBL Accession Number: NM_002599, Rosman et al. Gene 1997 191, 89-95), PDE3B (GenBank/EMBL Accession Number: NM_000922, Miki et al. Genomics 1996, 36, 476-485), PDE4B (GenBank/EMBL Accession Number: NM_002600, Obernolte et al. Gene. 1993, 129, 239-247), PDE5A (GenBank/EMBL Accession Number: NM_001083, Loughney et al. Gene 1998, 216, 139-147), PDE7B (GenBank/EMBL Accession Number: NM_018945, Hetman et al. Proc. Natl. Acad. Sci. U.S.A. 2000, 97, 472-476), PDE8A (GenBank/EMBL Accession Number. AF—056490, Fisher et al. Biochem. Biophys. Res. Commun. […]
(§2) The test substances are dissolved in 100% DMSO and serially diluted to determine their in vitro effect on PDE 9A. […] The plates are then measured for 30 s per well in a Microbeta scintillation counter (Wallac Inc., Atlanta, Ga.). IC50 values are determined from the graphical plot of the substance concentration versus the percentage inhibition.
(§3) The in vitro effect of test substances on recombinant PDE3B, PDE4B, PDE7B, PDE8A, PDE10A and PDE11A is determined in accordance with the assay protocol described above for PDE9A with the following adaptations: [5′,8-^3H] adenosine 3′,5′-cyclic phosphate (1 μCi/μL; Amersham Pharmacia Biotech., Piscataway, N.J.) is used as substrate. […]

[3] = biological target: PDE4B (Homo sapiens, UniProt Q07343); assay: PDE inhibition, recombinant PDE4B; type: biochemical
Sequence of PDE4B (Q07343 whole entry, looked up): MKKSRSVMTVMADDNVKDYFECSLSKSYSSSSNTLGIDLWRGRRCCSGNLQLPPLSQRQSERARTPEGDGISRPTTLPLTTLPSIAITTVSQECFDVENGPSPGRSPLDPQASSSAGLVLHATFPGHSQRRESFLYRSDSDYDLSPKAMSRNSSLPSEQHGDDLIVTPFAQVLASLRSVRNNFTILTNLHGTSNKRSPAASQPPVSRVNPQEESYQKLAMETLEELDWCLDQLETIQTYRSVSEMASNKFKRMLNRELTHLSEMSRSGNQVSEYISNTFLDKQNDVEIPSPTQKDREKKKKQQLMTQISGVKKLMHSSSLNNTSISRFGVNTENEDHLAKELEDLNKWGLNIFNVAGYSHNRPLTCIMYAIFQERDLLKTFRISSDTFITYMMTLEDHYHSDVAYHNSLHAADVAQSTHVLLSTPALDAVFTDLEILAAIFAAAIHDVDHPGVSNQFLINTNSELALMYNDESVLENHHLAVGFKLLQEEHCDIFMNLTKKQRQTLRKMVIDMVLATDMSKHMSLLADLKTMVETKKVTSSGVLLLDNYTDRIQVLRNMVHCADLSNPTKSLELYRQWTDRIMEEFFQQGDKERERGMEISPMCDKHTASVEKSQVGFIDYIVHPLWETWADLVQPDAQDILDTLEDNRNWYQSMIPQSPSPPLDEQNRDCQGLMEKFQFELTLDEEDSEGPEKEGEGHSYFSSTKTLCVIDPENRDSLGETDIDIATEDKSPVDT
Method: The test substances are dissolved in 100% DMSO and serially diluted to determine their in vitro effect on PDE 9A. […] 2 μL portions of the diluted substance solutions are introduced into the wells of microtiter plates (Isoplate; Wallac Inc., Atlanta, Ga.). Then 50 μL of a dilution of the PDE9A preparation described above are added. […] The substrate, [8-^3H] guanosine 3′,5′-cyclic phosphate (1 μCi/μL; Amersham Pharmacia Biotech., Piscataway, N.J.) is diluted 1:2000 with assay buffer (50 mM Tris/HCl pH 7.5, 8.3 mM MgCl2, 1.7 mM EDTA) to a concentration of 0.0005 μCi/μL. The enzyme reaction is finally started by adding 50 μL (0.025 μCi) of the diluted substrate. […] Immediately thereafter, 25 μL of a suspension containing 18 mg/mL Yttrium Scintillation Proximity Beads (Amersham Pharmacia Biotech., Piscataway, N.J.) are added. […] The plates are then measured for 30 s per well in a Microbeta scintillation counter (Wallac Inc., Atlanta, Ga.). IC50 values are determined from the graphical plot of the substance concentration versus the percentage inhibition.
The in vitro effect of test substances on recombinant PDE3B, PDE4B, PDE7B, PDE8A, PDE10A and PDE11A is determined in accordance with the assay protocol described above for PDE9A with the following adaptations: [5′,8-^3H] adenosine 3′,5′-cyclic phosphate (1 μCi/μL; Amersham Pharmacia Biotech., Piscataway, N.J.) is used as substrate.

[4] = biological target: PDE7B (Homo sapiens (Human), UniProt Q9NP56); assay: PDE inhibition, recombinant PDE7B; type: biochemical
Sequence of PDE7B (Q9NP56 whole entry): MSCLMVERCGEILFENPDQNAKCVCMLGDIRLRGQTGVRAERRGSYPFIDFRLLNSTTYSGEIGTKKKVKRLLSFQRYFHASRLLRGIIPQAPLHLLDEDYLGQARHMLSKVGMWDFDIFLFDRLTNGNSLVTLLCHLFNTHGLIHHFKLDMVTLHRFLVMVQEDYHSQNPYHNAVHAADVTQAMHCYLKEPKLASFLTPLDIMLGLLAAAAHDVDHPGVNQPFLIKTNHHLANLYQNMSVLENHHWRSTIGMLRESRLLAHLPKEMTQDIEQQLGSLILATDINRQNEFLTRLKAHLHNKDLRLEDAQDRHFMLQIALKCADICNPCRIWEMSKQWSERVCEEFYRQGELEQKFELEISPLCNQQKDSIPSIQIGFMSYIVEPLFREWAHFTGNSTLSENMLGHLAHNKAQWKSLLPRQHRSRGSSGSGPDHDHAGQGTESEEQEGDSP
Source text: as §1, §2, §3

[5] = biological target: PDE10A (Homo sapiens (Human), UniProt Q9Y233); assay: PDE inhibition, recombinant PDE10A; type: biochemical
Sequence of PDE10A (Q9Y233 other isoform, or with tags, fused parts or gaps): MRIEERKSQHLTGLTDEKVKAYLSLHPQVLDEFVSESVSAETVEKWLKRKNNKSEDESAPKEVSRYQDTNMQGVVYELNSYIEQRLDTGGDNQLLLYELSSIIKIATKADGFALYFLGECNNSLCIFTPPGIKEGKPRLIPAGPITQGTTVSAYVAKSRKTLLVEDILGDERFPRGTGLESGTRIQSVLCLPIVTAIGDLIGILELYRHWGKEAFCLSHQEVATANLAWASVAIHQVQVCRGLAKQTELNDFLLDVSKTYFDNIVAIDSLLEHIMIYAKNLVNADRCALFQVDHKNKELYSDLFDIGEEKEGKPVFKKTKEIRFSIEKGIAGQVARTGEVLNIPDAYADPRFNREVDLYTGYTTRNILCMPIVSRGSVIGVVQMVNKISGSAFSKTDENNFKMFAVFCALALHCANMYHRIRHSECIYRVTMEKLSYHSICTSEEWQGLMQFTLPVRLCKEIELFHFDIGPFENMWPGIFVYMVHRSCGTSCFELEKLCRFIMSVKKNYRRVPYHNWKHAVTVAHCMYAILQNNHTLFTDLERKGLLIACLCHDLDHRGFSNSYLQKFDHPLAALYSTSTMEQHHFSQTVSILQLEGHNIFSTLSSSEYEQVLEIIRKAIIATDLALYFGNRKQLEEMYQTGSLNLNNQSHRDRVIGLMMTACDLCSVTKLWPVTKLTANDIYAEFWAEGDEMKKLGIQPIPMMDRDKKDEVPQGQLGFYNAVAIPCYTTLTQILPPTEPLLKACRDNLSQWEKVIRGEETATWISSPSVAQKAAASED
Source text: as §1, §2, §3

[6] = biological target: PDE5A (Homo sapiens (Human), UniProt O76074); assay: PDE inhibition, recombinant PDE5A; type: biochemical
Source text: as §1, §2, §3

[7] = biological target: PDE3B (Homo sapiens (Human), UniProt Q13370); assay: PDE inhibition, recombinant PDE3B; type: biochemical
Sequence of PDE3B (Q13370 whole entry): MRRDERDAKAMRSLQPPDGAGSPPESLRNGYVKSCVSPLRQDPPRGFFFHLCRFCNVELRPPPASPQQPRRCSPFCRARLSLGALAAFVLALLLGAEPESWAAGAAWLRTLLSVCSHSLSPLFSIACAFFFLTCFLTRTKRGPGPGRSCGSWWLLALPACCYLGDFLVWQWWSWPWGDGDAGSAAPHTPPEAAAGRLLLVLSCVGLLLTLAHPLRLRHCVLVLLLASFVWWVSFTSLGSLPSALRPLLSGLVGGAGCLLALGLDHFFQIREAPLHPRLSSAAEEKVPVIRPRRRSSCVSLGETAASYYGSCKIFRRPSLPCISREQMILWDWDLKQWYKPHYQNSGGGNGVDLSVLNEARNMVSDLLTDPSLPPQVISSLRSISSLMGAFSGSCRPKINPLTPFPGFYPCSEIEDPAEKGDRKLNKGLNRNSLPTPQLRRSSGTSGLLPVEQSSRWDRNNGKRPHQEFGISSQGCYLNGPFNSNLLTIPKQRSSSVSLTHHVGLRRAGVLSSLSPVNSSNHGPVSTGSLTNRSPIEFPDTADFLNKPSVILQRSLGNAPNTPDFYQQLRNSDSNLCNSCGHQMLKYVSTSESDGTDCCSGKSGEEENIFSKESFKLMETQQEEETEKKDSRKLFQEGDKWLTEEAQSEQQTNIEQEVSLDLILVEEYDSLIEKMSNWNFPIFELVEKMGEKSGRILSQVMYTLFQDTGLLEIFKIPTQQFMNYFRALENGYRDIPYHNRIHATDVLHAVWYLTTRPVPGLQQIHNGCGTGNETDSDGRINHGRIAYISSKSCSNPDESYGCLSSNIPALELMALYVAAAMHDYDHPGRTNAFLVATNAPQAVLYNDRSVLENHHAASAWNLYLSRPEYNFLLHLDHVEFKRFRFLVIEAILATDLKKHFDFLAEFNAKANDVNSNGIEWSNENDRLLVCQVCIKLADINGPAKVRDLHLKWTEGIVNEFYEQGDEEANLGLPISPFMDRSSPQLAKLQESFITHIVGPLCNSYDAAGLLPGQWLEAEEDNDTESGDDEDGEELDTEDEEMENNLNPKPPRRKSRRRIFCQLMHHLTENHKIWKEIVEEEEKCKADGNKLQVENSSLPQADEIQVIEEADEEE
Source text: as §1, §2, §3

[8] = biological target: T1, PDE9A (Homo sapiens (Human), UniProt O76083); assay: PDE inhibition, recombinant PDE9A; type: biochemical
T1 sequence (O76083 whole entry): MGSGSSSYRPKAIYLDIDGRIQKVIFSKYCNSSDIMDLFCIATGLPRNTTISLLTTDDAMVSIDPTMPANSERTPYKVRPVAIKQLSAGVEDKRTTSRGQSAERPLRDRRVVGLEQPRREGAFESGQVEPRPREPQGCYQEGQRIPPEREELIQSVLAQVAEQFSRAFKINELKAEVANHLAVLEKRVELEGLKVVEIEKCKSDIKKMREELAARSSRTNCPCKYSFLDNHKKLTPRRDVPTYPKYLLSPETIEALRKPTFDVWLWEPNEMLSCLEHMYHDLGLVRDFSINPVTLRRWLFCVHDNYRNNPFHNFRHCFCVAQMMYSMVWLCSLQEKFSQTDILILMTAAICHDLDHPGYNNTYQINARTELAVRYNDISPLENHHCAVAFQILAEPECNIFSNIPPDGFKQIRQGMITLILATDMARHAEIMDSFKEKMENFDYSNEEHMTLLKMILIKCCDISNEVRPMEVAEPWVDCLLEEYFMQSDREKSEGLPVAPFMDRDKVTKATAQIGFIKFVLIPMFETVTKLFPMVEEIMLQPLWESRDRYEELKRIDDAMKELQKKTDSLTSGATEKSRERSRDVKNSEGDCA
Method: The test substances are dissolved in 100% DMSO and serially diluted to determine their in vitro effect on PDE 9A. […] 2 μL portions of the diluted substance solutions are introduced into the wells of microtiter plates (Isoplate; Wallac Inc., Atlanta, Ga.). Then 50 μL of a dilution of the PDE9A preparation described above are added. […] The substrate, [8-^3H] guanosine 3′,5′-cyclic phosphate (1 μCi/μL; Amersham Pharmacia Biotech., Piscataway, N.J.) is diluted 1:2000 with assay buffer (50 mM Tris/HCl pH 7.5, 8.3 mM MgCl2, 1.7 mM EDTA) to a concentration of 0.0005 μCi/μL. The enzyme reaction is finally started by adding 50 μL (0.025 μCi) of the diluted substrate. […] Immediately thereafter, 25 μL of a suspension containing 18 mg/mL Yttrium Scintillation Proximity Beads (Amersham Pharmacia Biotech., Piscataway, N.J.) are added. The microliter plates are sealed with a film and left to stand at room temperature for 60 min. The plates are then measured for 30 s per well in a Microbeta scintillation counter (Wallac Inc., Atlanta, Ga.). IC50 values are determined from the graphical plot of the substance concentration versus the percentage inhibition.

[9] = biological target: PDE2A (Homo sapiens (Human), UniProt O00408); assay: PDE inhibition, recombinant PDE2A; type: biochemical
Source text: as §1, §2, §3

[10] = biological target: T1, PDE9A; settings: concentrations of up to 100 μM; cited from earlier work
[11] = biological target: Murine PDE9A (Mus musculus (Mouse), UniProt O70628); settings: concentrations below 200 μM; cited from earlier work
Sequence of Murine PDE9A (O70628 whole entry): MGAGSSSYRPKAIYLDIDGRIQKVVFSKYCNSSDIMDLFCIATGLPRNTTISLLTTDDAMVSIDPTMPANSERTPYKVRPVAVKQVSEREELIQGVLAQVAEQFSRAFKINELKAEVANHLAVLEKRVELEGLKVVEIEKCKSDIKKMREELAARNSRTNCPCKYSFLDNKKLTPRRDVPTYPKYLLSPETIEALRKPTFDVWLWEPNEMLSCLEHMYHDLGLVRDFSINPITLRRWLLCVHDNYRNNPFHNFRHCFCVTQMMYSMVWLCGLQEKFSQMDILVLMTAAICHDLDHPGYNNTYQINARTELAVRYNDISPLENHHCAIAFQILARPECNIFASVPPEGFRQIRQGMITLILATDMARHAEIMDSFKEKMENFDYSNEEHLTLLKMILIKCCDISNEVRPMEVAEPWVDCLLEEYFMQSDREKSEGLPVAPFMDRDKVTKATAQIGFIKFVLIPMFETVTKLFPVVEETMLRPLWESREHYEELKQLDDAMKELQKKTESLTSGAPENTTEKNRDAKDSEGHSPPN

Sequence of PDE8A (O60658 117-829): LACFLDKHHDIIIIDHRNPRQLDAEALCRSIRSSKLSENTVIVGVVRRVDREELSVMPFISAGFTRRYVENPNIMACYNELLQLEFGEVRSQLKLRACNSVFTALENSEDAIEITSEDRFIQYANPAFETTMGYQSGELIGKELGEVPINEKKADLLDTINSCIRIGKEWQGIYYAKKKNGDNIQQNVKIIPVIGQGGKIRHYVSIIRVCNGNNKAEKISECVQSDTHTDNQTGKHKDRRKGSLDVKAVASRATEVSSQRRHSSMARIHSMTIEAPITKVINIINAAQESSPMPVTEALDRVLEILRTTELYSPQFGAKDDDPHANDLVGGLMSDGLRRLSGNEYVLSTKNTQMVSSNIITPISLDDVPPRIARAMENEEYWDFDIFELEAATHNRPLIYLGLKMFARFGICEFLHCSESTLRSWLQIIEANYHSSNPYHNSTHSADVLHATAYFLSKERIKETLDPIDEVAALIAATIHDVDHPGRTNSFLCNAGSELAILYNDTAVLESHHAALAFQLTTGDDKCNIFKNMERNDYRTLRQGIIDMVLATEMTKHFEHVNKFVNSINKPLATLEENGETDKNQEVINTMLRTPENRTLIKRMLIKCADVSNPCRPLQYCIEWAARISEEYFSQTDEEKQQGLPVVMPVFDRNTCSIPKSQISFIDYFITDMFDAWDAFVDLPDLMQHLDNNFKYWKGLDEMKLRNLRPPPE

Row | SMILES | melting point [°C] | further results
1 | O=c1[nH]c(CCCO)nc2c1cnn2C1CCCC1 [Example 2, 1-Cyclopentyl-6-(3-hydroxypropyl)-1,5-dihydro-4H-pyrazolo[3,4-d]pyrimidin-4-one] | 138 | 
2 | CCC(CC)n1ncc2c(=O)[nH]c(CC3CCCCC3)nc21 [Example 3, 6-(Cyclohexylmethyl)-1-(1-ethylpropyl)-1,5-dihydro-4H-pyrazolo[3,4-d]pyrimidin-4-one] | 122 | pIC50 [1]: 6.14; pIC50 [2]: < 5.40; pIC50 [3]: < 5.40; pIC50 [4]: < 5.40; pIC50 [5]: < 5.40; pIC50 [6]: < 5.40; pIC50 [7]: < 5.40; pIC50 [8]: 6.96; pIC50 [9]: < 5.40
3 | CC(C)CCc1nc2c(cnn2C2CCCC2)c(=O)[nH]1 [Example 5, 1-Cyclopentyl-6-(3-methylbutyl)-1,5-dihydro-4H-pyrazolo[3,4-d]pyrimidin-4-one] | 133 | 
4 | CCC(C)Cc1nc2c(cnn2C(CC)CC)c(=O)[nH]1 (stereo not shown) [Example 7, 1-(1-Ethylpropyl)-6-(2-methylbutyl)-1,5-dihydro-4H-pyrazolo[3,4-d]pyrimidin-4-one] | 121 | 
5 | CCOC(=O)CCc1nc2c(cnn2C(CC)CC)c(=O)[nH]1 [Example 14, Ethyl 4-[1-(1-ethylpropyl)-4-oxo-4,5-dihydro-1H-pyrazolo[3,4-d]pyrimidin-6-yl]-propionate] | 118 | 
6 | CC(Cc1nc2c(cnn2C2CCCC2)c(=O)[nH]1)C(F)(F)F (stereo not shown) [Example 23, 1-(1-Cyclopentyl)-6-(3,3,3-trifluoro-2-methylpropyl)-1,5-dihydro-4H-pyrazolo[3,4-d]pyrimidin-4-one] | 166 | 
7 | CC(C)Cn1c(=O)n(C)c(=O)c2[nH]cnc21 [IBMX] |  | inhibition on the isolated enzyme [10]: no inhibition; inhibition [11]: not inhibited
8 | CC(=O)Nc1ccc(-c2c[nH]c(=O)cn2)cc1 [SKF94120] |  | inhibition on the isolated enzyme [10]: no inhibition
9 | OCCN(CCO)c1nc(N2CCCCC2)c2nc(N(CCO)CCO)nc(N3CCCCC3)c2n1 [dipyridamole] |  | inhibition on the isolated enzyme [10]: no inhibition
10 | COc1ccc(C2CNC(=O)C2)cc1OC1CCCC1 (stereo not shown) [rolipram] |  | inhibition on the isolated enzyme [10]: no inhibition
11 | CCOC(=O)C1=C[C@]2(CC)CCCN3CCc4c(n1c1ccccc41)[C@@H]32 [vinpocetine] |  | inhibition on the isolated enzyme [10]: no inhibition

More lines, main results first:

Row | melting point [°C] | SMILES | further results
12 | 147 | O=c1[nH]c(CC2CCCCC2)nc2c1cnn2C1CCCC1 | 
13 | 128 | CCC(CC)n1ncc2c(=O)[nH]c(CC3C=CCC3)nc21 (stereo not shown) | 
14 | 179 | O=c1[nH]c(CC2CCCO2)nc2c1cnn2C1CCCC1 (stereo not shown) | 
15 | 86 | CCC(C)Cc1nc2c(cnn2C2CCCC2)c(=O)[nH]1 (stereo not shown) | 
16 | 166 | O=c1[nH]c(CC2C=CCC2)nc2c1cnn2C1CCCC1 (stereo not shown) | 
17 | 127 | CCC(CC)n1ncc2c(=O)[nH]c(CCC(C)C)nc21 [Example 8, 1-(1-Ethylpropyl)-6-isopentyl-1,5-dihydro-4H-pyrazolo[3,4-d]pyrimidin-4-one] | 
18 | 161 | CCC(CC)n1ncc2c(=O)[nH]c(CC(C)C)nc21 [Example 9, 1-(1-Ethylpropyl)-6-isobutyl-1,5-dihydro-4H-pyrazolo[3,4-d]pyrimidin-4-one] | 
19 | 127 | CCCc1nc2c(cnn2C(CC)CC)c(=O)[nH]1 [Example 10, 1-(1-Ethylpropyl)-6-propyl-1,5-dihydro-4H-pyrazolo[3,4-d]pyrimidin-4-one] | 
20 | 136 | CCC(CC)n1ncc2c(=O)[nH]c(CC3CCCO3)nc21 (stereo not shown) [Example 11, 1-(1-Ethylpropyl)-6-(tetrahydro-2-furanylmethyl)-1,5-dihydro-4H-pyrazolo[3,4-d]-pyrimidin-4-one] | 
21 | 126 | CC1CCC(Cc2nc3c(cnn3C3CCCC3)c(=O)[nH]2)CC1 (stereo not shown) [Example 15, 1-Cyclopentyl-6-[(4-methylcyclohexyl)methyl]-1,5-dihydro-4H-pyrazolo[3,4-d]-pyrimidin-4-one] | 
22 | 185 | CCOC(=O)CCc1nc2c(cnn2C2CCCC2)c(=O)[nH]1 [Example 18, Ethyl 4-[1-cyclopentyl-4-oxo-4,5-dihydro-1H-pyrazolo[3,4-d]pyrimidin-6-yl]-propionate] | 
23 | 156 | CCC(CC)n1ncc2c(=O)[nH]c(CC3CCCC3)nc21 [Example 21, 6-(Cyclopentylmethyl)-1-(1-ethylpropyl)-1,5-dihydro-4H-pyrazolo[3,4-d]pyrimidin-4-one] | 
24 | 156 | CCC(CC)n1ncc2c(=O)[nH]c(CC(C)C(F)(F)F)nc21 (stereo not shown) [Example 22, 1-(1-Ethylpropyl)-6-(3,3,3-trifluoro-2-methylpropyl)-1,5-dihydro-4H-pyrazolo[3,4-d]pyrimidin-4-one] | 

— patent US8741907B2, “Alkyl-substituted pyrazolopyrimidines” (Boehringer Ingelheim International GmbH, priority 2002, dated 2014)
